Values joined by “and” are separate entries in the source; they are usually repeats but may differ in a detail not shown here. Identical values can stand only once.
Assays:
MCF‐7 cells [1] = assay: Wound healing assay, MCF‐7; type: cell-based, human; conditions: MCF‐7, 20 μM, 72 h
[2] = tested on: primary non‐malignant mouse macrophages (Mph); assay: Crystal violet (CV) cell viability assay, peritoneal macrophages (Mph); type: cell-based; conditions: 72 h
Text: (§1) Thus, care must be taken when comparing their biological activities with those of our previous studies, even with the same cell line, because the covalent vs. non‐covalent combination of drugs might imply different mechanisms of action in the cell.44 Here, we studied the in vitro activity of ruthenacarborane 3, i. e. free acid, and its 8‐hydroxyquinolyl (4) and 4‐{(7‐chloroquinolin‐4‐yl)oxy}butanol‐1‐yl (5) esters, against a panel of cancer cell lines (B16 mouse melanoma, A375 human skin melanoma, MCF‐7 human breast adenocarcinoma, LN229 human glioblastoma, U251 human glioma). Human fibroblast cell line MRC‐5, murine microglial cell line BV‐2 as well as peritoneal exudate cells (Mph), were chosen as models for non‐malignant cells. […] On the other side, we wanted to assess the reproducibility of the viability data, under either controlled (with BSA) or uncontrolled (without BSA) conditions, in two sets of independent assays. […] Cells were exposed to 3–5 for 72 h, after which cell viability was determined via 3‐(4,5‐dimethylthiazol‐2‐yl)‐2,5‐diphenyltetrazolium bromide (MTT) and crystal violet (CV) assays, in parallel (Table 2). Cisplatin was also tested as reference.
(§2) Preparation of drug solutions. […] Stock solution of cisplatin was prepared in DMF (10 mM) immediately before use. A stock solution of BSA in PBS was prepared at 1.28 mM concentration, and stored at 4 °C in the dark. […] Alternatively, 3 or 4 (DMSO stock solution) were added to the BSA solution in PBS, always with a 10 : 1 molar ratio of BSA to ruthenacarborane. […]
(§3) Colorimetric assays for cellular viability. […] The absorbance was measured with an automated microplate reader at λmax 540 nm, with the reference λmax 670 nm. Untreated cells or cells treated only with BSA (control) were also measured, as reference for BSA‐free and BSA‐containing drug formulations, respectively. […] Cell viability is expressed as percentage (%) relative to control (untreated cultures).58 Experiments were run in three independent replicates. […]

MCF‐7 cells [3] = assay: CFSE staining, flow cytometry, MCF‐7; type: cell-based, human; conditions: MCF‐7, 20 μM, 72 h
Protocol: Flow cytometry. For gaining better insights into the mechanisms of action of the ruthenium complexes, MCF‐7 and LN229 cells incubated with an IC50 dose of 3 or 4, were analyzed via flow cytometry. Several staining protocols were carried out in parallel, in independent experiments: i) AnnV/PI for the detection of apoptotic cell death, ii) AO for the detection of acidic vacuoles, iii) ApoStat for checking caspase activation, iv) CFSE for detecting interference with cellular proliferation, and v) DAPI for the detection of morphological signs of apoptosis. Untreated cells or cells treated only with BSA (control) were also measured, as reference for BSA‐free and BSA‐containing drug formulations, respectively. […] Channels FL1 (green emission), FL2 (orange emission) and/or FL3 (dark red emission) were used for fluorescence detection, according to the specific staining agent. Sideward Scatter (SSC) for MCF‐7 cells treated with 4 or BSA−4 was also analyzed, with respect to the control, for detection of shifts of cell granularity. […]
Staining Protocols for Flow Cytometric Analysis. […] Finally, cells were washed in PBS, resuspended in PBS (or AnnV‐binding buffer for AnnV/PI), and analysed. […] Cells were then washed, trypsinised, dissolved in PBS and analysed by CyFlow® Space Partec using the PartecFloMax® software (Partec GmbH, Münster, Germany). […]

[4] = tested on: murine microglial cell line BV‐2; assay: Crystal violet (CV) cell viability assay, BV‐2; type: cell-based, mouse; conditions: 72 h
Text: as §1, §2, §3

[5] = tested on: MCF‐7 human breast adenocarcinoma; assay: Crystal violet (CV) cell viability assay, MCF‐7; type: cell-based; conditions: 72 h
Text: as §1
(§4) Preparation of drug solutions. […] Stock solution of cisplatin was prepared in DMF (10 mM) immediately before use. A stock solution of BSA in PBS was prepared at 1.28 mM concentration, and stored at 4 °C in the dark. […] Alternatively, 3 or 4 (DMSO stock solution) were added to the BSA solution in PBS, always with a 10 : 1 molar ratio of BSA to ruthenacarborane. The BSA−ruthenacarborane solutions were incubated 0.5–1 h at room temperature, then diluted with cell culture medium to the desired final concentrations. Final concentrations of 3 and 4 were the same as for the BSA‐free formulation. Final DMSO was 0.02–0.5 vol %.
(§5) Colorimetric assays for cellular viability. […] For counting the number of attached (viable) cells, cells were fixed with 4 % (w/v) paraformaldehyde for 10 min at room temperature, and subsequently stained for 15 min with […] crystal violet (CV) solution. Cells were then washed with tap water, dried in air, and the CV dye was dissolved in 33 % (w/v) acetic acid solution. For the detection of mitochondrial respiration, cells were cultivated in MTT staining solution (0.5 mg mL^−1) for approximately 1 h. The dye was then discarded, and the formed formazan (purple) was dissolved in DMSO. The absorbance was measured with an automated microplate reader at λmax 540 nm, with the reference λmax 670 nm. Untreated cells or cells treated only with BSA (control) were also measured, as reference for BSA‐free and BSA‐containing drug formulations, respectively. […] Cell viability is expressed as percentage (%) relative to control (untreated cultures).58 Experiments were run in three independent replicates. […]

U251 human glioma = assay: MTT cell viability assay, U251; type: cell-based; conditions: 72 h
Text: as §1, §4, §5

| Substance | cell migration (wound healing assay, in words) (MCF‐7 cells [1]) | IC50 [2] | cellular proliferation (CFSE staining) (MCF‐7 cells [3]) | IC50 [4] [µM] | IC50 [5] [µM] | IC50 (U251 human glioma) [µM] |
| --- | --- | --- | --- | --- | --- | --- |
| closo ‐[3‐(η^6‐p‐Cymene)‐1‐(quinolin‐8‐yl‐acetate)‐3,1,2‐RuC2B9H10] [Compound 4] | inhibited cell migration | 94 ± 7.7 µM | inhibition of cellular proliferation | 9.2 ± 0.1 | 16.9 ± 1.1 | 46.2 ± 1.9 |
| closo‐ [Compound 3, closo‐ [3‐(η^6‐p‐Cymene)‐1‐(CH2COOH)‐3,1,2‐RuC2B9H10]] | inhibited cell migration | 49 µM and 49.1 µM | inhibition of cellular proliferation | 68.2 ± 1.3 | 22.9 ± 1.4 | > 100 |
